Assay results as given in ChEMBL document CHEMBL3885881, “DrugMatrix”.

Species: Rattus norvegicus
Assay: DrugMatrix - Regimen: Daily Repeat
Assay type: toxicity, organism-based, Sprague-Dawley
Design: regimen Daily Repeat, gender Male, age 6-8 weeks
Conditions: in vivo, po, route oral GAVAGE, vehicle .5 % CMC; for ABSOLUTE BASOPHIL / ABSOLUTE EOSINOPHIL / ABSOLUTE LYMPHOCYTE / ABSOLUTE MONOCYTE / ABSOLUTE SEGMENTED NEUTROPHIL / BASOPHIL / EOSINOPHIL / ERYTHROCYTE COUNT / HEMATOCRIT / HEMOGLOBIN / LEUKOCYTE COUNT / LYMPHOCYTE / MEAN CORPUSCULAR HEMOGLOBIN / MEAN CORPUSCULAR HEMOGLOBIN CONCENTRATION / MEAN CORPUSCULAR VOLUME / MONOCYTE / NEUTROPHIL / NUCLEATED RED BLOOD CELLS / PLATELET COUNT: tissue Blood; for ALANINE AMINOTRANSFERASE / ALBUMIN / ALKALINE PHOSPHATASE / ASPARTATE AMINOTRANSFERASE / BLOOD UREA NITROGEN / CARBON DIOXIDE / CHLORIDE / CHOLESTEROL / CREATINE PHOSPHOKINASE / CREATININE / GLUCOSE / LACTATE DEHYDROGENASE / LIPASE / PHOSPHORUS / POTASSIUM / SODIUM / TOTAL BILIRUBIN / TOTAL PROTEIN / URIC ACID: tissue Plasma
[1] = 200 mg/kg, 120 h, dose level Low, time 5 day
[2] = 2500 mg/kg, 72 h, dose level High, time 3 day
[3] = 2500 mg/kg, 120 h, dose level High, time 5 day

Compound: CCC1=C(C)CN(C(=O)NCCc2ccc(S(=O)(=O)NC(=O)N[C@H]3CC[C@H](C)CC3)cc2)C1=O [GLIMEPIRIDE]
- ABSOLUTE BASOPHIL [1]: 0 CELLS/uL
- ABSOLUTE EOSINOPHIL [1]: 0 CELLS/uL
- ABSOLUTE LYMPHOCYTE [1]: 12890.33 CELLS/uL
- ABSOLUTE MONOCYTE [1]: 43.33 CELLS/uL
- ABSOLUTE SEGMENTED NEUTROPHIL [1]: 866.33 CELLS/uL
- BASOPHIL [1]: 0%
- EOSINOPHIL [1]: 0%
- ERYTHROCYTE COUNT [1]: 5.84 x10E6/uL
- HEMATOCRIT [1]: 36.5%
- HEMOGLOBIN [1]: 14.63 G/DL
- LEUKOCYTE COUNT [1]: 13.8 x10E3/uL
- LYMPHOCYTE [1]: 93.33%
- MEAN CORPUSCULAR HEMOGLOBIN [1]: 25.03 pg
- MEAN CORPUSCULAR HEMOGLOBIN CONCENTRATION [1]: 40.1 G/DL
- MEAN CORPUSCULAR VOLUME [1]: 62.43 fL
- MONOCYTE [1]: 0.33%
- NEUTROPHIL [1]: 6.33%
- NUCLEATED RED BLOOD CELLS [1]: 0 /100WBC
- PLATELET COUNT [1]: 1124.67 x10E3/uL
- ALANINE AMINOTRANSFERASE [1]: 58.33 u/L
- ALBUMIN [1]: 4.43 G/DL
- ALKALINE PHOSPHATASE [1]: 402 u/L
- ASPARTATE AMINOTRANSFERASE [1]: 81.33 u/L
- BLOOD UREA NITROGEN [1]: 15.67 mg/dL
- CARBON DIOXIDE [1]: 31.67 mmol/L
- CHLORIDE [1]: 101.33 MEQ/L
- CHOLESTEROL [1]: 75 mg/dL
- CREATINE PHOSPHOKINASE [1]: 241.33 u/L
- CREATININE [1]: 0.18 mg/dL
- GLUCOSE [1]: 154 mg/dL
- LACTATE DEHYDROGENASE [1]: 123.67 u/L
- LIPASE [1]: 10 u/L
- PHOSPHORUS [1]: 10.53 mg/dL
- POTASSIUM [1]: 6.31 MEQ/L
- SODIUM [1]: 143.8 MEQ/L
- TOTAL BILIRUBIN [1]: 0.2 mg/dL
- TOTAL PROTEIN [1]: 6.23 G/DL
- URIC ACID [1]: 1.13 mg/dL
- ABSOLUTE BASOPHIL [2]: 0 CELLS/uL
- ABSOLUTE EOSINOPHIL [2]: 0 CELLS/uL
- ABSOLUTE LYMPHOCYTE [2]: 11733.33 CELLS/uL
- ABSOLUTE MONOCYTE [2]: 88 CELLS/uL
- ABSOLUTE SEGMENTED NEUTROPHIL [2]: 778.67 CELLS/uL
- BASOPHIL [2]: 0%
- EOSINOPHIL [2]: 0%
- ERYTHROCYTE COUNT [2]: 5.59 x10E6/uL
- HEMATOCRIT [2]: 36.03%
- HEMOGLOBIN [2]: 14.23 G/DL
- LEUKOCYTE COUNT [2]: 12.6 x10E3/uL
- LYMPHOCYTE [2]: 92.67%
- MEAN CORPUSCULAR HEMOGLOBIN [2]: 25.47 pg
- MEAN CORPUSCULAR HEMOGLOBIN CONCENTRATION [2]: 39.6 G/DL
- MEAN CORPUSCULAR VOLUME [2]: 64.33 fL
- MONOCYTE [2]: 0.67%
- NEUTROPHIL [2]: 6.67%
- NUCLEATED RED BLOOD CELLS [2]: 0.33 /100WBC
- PLATELET COUNT [2]: 1148 x10E3/uL
- ALANINE AMINOTRANSFERASE [2]: 60.33 u/L
- ALBUMIN [2]: 4.2 G/DL
- ALKALINE PHOSPHATASE [2]: 398.33 u/L
- ASPARTATE AMINOTRANSFERASE [2]: 110 u/L
- BLOOD UREA NITROGEN [2]: 16.67 mg/dL
- CARBON DIOXIDE [2]: 28 mmol/L
- CHLORIDE [2]: 102.67 MEQ/L
- CHOLESTEROL [2]: 61 mg/dL
- CREATINE PHOSPHOKINASE [2]: 802 u/L
- CREATININE [2]: 0.14 mg/dL
- GLUCOSE [2]: 165.67 mg/dL
- LACTATE DEHYDROGENASE [2]: 190 u/L
- LIPASE [2]: 10.33 u/L
- PHOSPHORUS [2]: 10.87 mg/dL
- POTASSIUM [2]: 5.99 MEQ/L
- SODIUM [2]: 143.87 MEQ/L
- TOTAL BILIRUBIN [2]: 0.1 mg/dL
- TOTAL PROTEIN [2]: 5.73 G/DL
- URIC ACID [2]: 1.47 mg/dL
- ABSOLUTE BASOPHIL [3]: 0 CELLS/uL
- ABSOLUTE EOSINOPHIL [3]: 80.67 CELLS/uL
- ABSOLUTE LYMPHOCYTE [3]: 11006.67 CELLS/uL
- ABSOLUTE MONOCYTE [3]: 128 CELLS/uL
- ABSOLUTE SEGMENTED NEUTROPHIL [3]: 1118 CELLS/uL
- BASOPHIL [3]: 0%
- EOSINOPHIL [3]: 0.67%
- ERYTHROCYTE COUNT [3]: 5.89 x10E6/uL
- HEMATOCRIT [3]: 36.97%
- HEMOGLOBIN [3]: 14.8 G/DL
- LEUKOCYTE COUNT [3]: 12.33 x10E3/uL
- LYMPHOCYTE [3]: 89.33%
- MEAN CORPUSCULAR HEMOGLOBIN [3]: 25.13 pg
- MEAN CORPUSCULAR HEMOGLOBIN CONCENTRATION [3]: 40.07 G/DL
- MEAN CORPUSCULAR VOLUME [3]: 62.73 fL
- MONOCYTE [3]: 1%
- NEUTROPHIL [3]: 9%
- NUCLEATED RED BLOOD CELLS [3]: 0 /100WBC
- PLATELET COUNT [3]: 1082.67 x10E3/uL
- ALANINE AMINOTRANSFERASE [3]: 74 u/L
- ALBUMIN [3]: 4.47 G/DL
- ALKALINE PHOSPHATASE [3]: 390 u/L
- ASPARTATE AMINOTRANSFERASE [3]: 96.33 u/L
- BLOOD UREA NITROGEN [3]: 19 mg/dL
- CARBON DIOXIDE [3]: 28.67 mmol/L
- CHLORIDE [3]: 101.33 MEQ/L
- CHOLESTEROL [3]: 72 mg/dL
- CREATINE PHOSPHOKINASE [3]: 380.67 u/L
- CREATININE [3]: 0.18 mg/dL
- GLUCOSE [3]: 132.33 mg/dL
- LACTATE DEHYDROGENASE [3]: 150.33 u/L
- LIPASE [3]: 8 u/L
- PHOSPHORUS [3]: 11.9 mg/dL
- POTASSIUM [3]: 5.72 MEQ/L
- SODIUM [3]: 145.67 MEQ/L
- TOTAL BILIRUBIN [3]: 0.23 mg/dL
- TOTAL PROTEIN [3]: 6.3 G/DL
- URIC ACID [3]: 1.5 mg/dL
